Here are results for 7 molecules from patent US20250161297A1, “COMPOSITIONS AND METHODS FOR INHIBITING FSP1” (THE REGENTS OF THE UNIVERSITY OF CALIFORNIA, priority 2022, published 2025).

Holding throughout (format): cell-based
The test system of series [1] is H460^C cells. Put plainly: GPX4 inhibitor-induced cell death with FSEN1 co-treatment. As for the experimental part: (§1) For cell-based screen, cells were seeded in triplicate at a density of 500-750 cells per 50 μL per well in black 384-well plates (NUNC) and (Corning) 24 hr before start of imaging. After 24 hr, an additional 50 μL of drug infused medium containing 30 nM SYTOX Green Dead Cell Stain was carefully placed into the wells on top of existing medium. The plates were immediately transferred to an IncuCyte S3 imaging system (Essen Bioscience) enclosed in an incubator set to 37° C. and 5% CO2. One image per well were captured in the phase, green, and red channels every 1.5 or 3 hr over a 24 hr period, and the ratio of SYTOX Green-positive objects (dead cells) to SYTOX Green-positive plus Sg-SAFE mCherry-positive objects (total cells) was quantified using S3 image analysis software (Essen Bioscience). For each treatment condition, the SYTOX-to-′SYTOX+mCherry′-object ratio was plotted against the 24 hr imaging interval, the Area Under the Curve (AUC) was calculated and the average AUC was plotted using Prism (GraphPad). To calculate the half-maximal effective concentration (EC50) values, the AUC curve was fit to a variable slope function comparing response to drug concentration.
(§2) Synergy experiments: For cell-based synergy experiments, cells were seeded at a density of 750 cells per 25 μL per well in four black 384-well plates (Corning) 24 hr before start of imaging. After 24 hr, an additional 25 μL of drug infused medium containing 30 nM SYTOX Green Dead Cell Stain was carefully placed into the wells on top of existing medium. The plates were immediately transferred to an IncuCyte S3 imaging system (Essen Bioscience) enclosed in an incubator set to 37° C. and 5% CO2. One image per well were captured in the phase, green, and red channels every 4 hr over a 24 hr period, and the ratio of SYTOX Green-positive objects (dead cells) to SYTOX Green-positive plus Sg-SAFE mCherry-positive objects (total cells) was quantified using S3 image analysis software (Essen Bioscience). For each treatment condition, the SYTOX-to-′SYTOX+mCherry′-object ratio was plotted against the 24 hr imaging interval, the Area Under the Curve (AUC) was calculated, and the average AUC was plotted as a function of drug concentration (for example, RSL3) using Prism (GraphPad). To calculate the half-maximal effective concentration (EC50) values, the AUC curve was fit to a variable slope function comparing response to drug concentration.

For series [2], the system named is H460^C cells. Put plainly: DHA- and FINO2-induced cell death with FSEN1 co-treatment. As for the experimental part:
as §1, §2

The subject of series [3] is panel of cancer cell lines of various tissue origins. Put plainly: RSL3-induced cell death in a panel of cancer cell lines. The following applies: RSL3 plus FSEN1; 2 μM Fer-1. The procedure:
as §1, with “concentration. […]” for “concentration.”

Series [4] has as its system H460^C FSP1^KO cells. Put plainly: FDA and Bioactive Library synthetic lethal screen. The conditions noted are these: 24 h. As for the experimental part: FDA and Bioactive Library Screen: For FDA and Bioactive Library Screen experiments, cells were seeded at a density of 750 cells per 25 uL per well in black 384-well plates (NUNC) and (Corning) 24 hr before start of imaging. After 24 hr, an additional 25 μL of drug infused medium containing 30 nM SYTOX Green Dead Cell Stain was carefully placed into the wells on top of existing medium. The plates were immediately transferred to an IncuCyte S3 imaging system (Essen Bioscience) enclosed in an incubator set to 37° C. and 5% CO2. One image per well were captured in the phase, green, and red channels every 4 hr over a 24 hr period, and the ratio of SYTOX Green-positive objects (dead cells) to SYTOX Green-positive plus SgSAFE mCherry-positive objects (total cells) was quantified using S3 image analysis software (Essen Bioscience). For each treatment condition, the SYTOX-to-‘SYTOX+mCherry’-object ratio was plotted against the 24 hr imaging interval, the Area Under the Curve (AUC) was calculated, and the average AUC was plotted as a function of drug concentration (for example, RSL3) using Prism (GraphPad). To calculate the half-maximal effective concentration (EC50) values, the AUC curve was fit to a variable slope function comparing response to drug concentration. […]

pEC50: −log10 of the molar value. Residues, ends and D or L forms follow the SMILES beside them. *: point of attachment. Cbz = O=C(OCc1ccccc1)*; CH2F = FC*

Consider `CCOC(=O)c1ccc(NC2CCCCC2)c(N)c1` [ferrostatin-1], for which, in series [1], the “effect on cell death induced by co-treatment of FSEN1 with RSL3” value (shortened to “effect on cell death induced … with RSL3”) was “blocked”. For the same molecule, in series [2], the “effect on cell death induced by DHA and FSEN1 together” value (“effect … by DHA and FSEN1 together” below) is given as “strongly suppressed”. Moreover, the “effect on cell death by co-treatment” value in series [3] is reported as “rescued”. Take `COC(=O)C[C@H](NC(=O)[C@H](C)NC(=O)[C@@H](NC(=O)OCc1ccccc1)C(C)C)C(=O)CF` [Z-VAD] (Cbz-Val-Ala-Asp(OMe)-CH2F): the “effect on cell death induced … with RSL3” value in series [1] is “no effect”. On to `C[C@H]1[C@@H](O)O[C@@H]2O[C@@]3(C)CC[C@H]4[C@H](C)CC[C@@H]1[C@@]24OO3` [DHA, dihydroartemisinin], for which, in series [2] (DHA and FSEN1 treatment together), the pEC50 (commonly the EC50 on a negative log10 scale, so that one unit is a factor of ten) was 4.67. Moreover, in series [4], the “cytotoxicity in H460^C FSP1^KO cells” value is “selectively induced cell death”. As for `COC1=C(OC)C(=O)C(CCCCCCCCCCO)=C(C)C1=O` [idebenone], the “effect on cell death induced … with RSL3” value in series [1] is “blocked”. For the same molecule, the “effect … by DHA and FSEN1 together” value in series [2] is listed as “strongly suppressed”. On to `COC(=O)c1ccc([C@@H]2c3[nH]c4ccccc4c3C[C@@H](C(=O)OC)N2C(=O)CCl)cc1` [RSL3], for which, in series [4], the “cytotoxicity in H460^C FSP1^KO cells” value is on record as “cytotoxic”. With tocopherol, in series [1], the “effect on cell death induced … with RSL3” value was “blocked”. For the same molecule, in series [2], the “effect … by DHA and FSEN1 together” value was “strongly suppressed”. As to `CN1C(=O)NC(Cc2c[nH]c3c(Cl)cccc23)C1=O` (stereo not drawn) [Nects], the “effect on cell death induced … with RSL3” value in series [1] was “no effect”.
